# Data taken from patent US20220280644A1, “"TRPswitch" - A STEP FUNCTION CHEMO-OPTOGENETIC LIGAND” (UNIVERSITY OF UTAH RESEARCH FOUNDATION, priority 2019, published 2022).
# Experiments:
# [1] = Photostationary state (PSS) determination; type: physicochemical; conditions: estimated, UV/Vis spectroscopy in DMSO
# Text: […] In the latter case, the pure Z isomer spectrum was estimated using methods described in previous publications.
# [2] = test system: wild-type zebrafish larvae; test: Behavioral assay: light-induced motion response of wild-type larvae; type: in vivo, Zebrafish (Danio rerio); conditions: 3 dpf wild-type larvae, 1 s flashes WL1-WL4
# Description: A total of 1,000 compounds were selected from the ChemBridge Corp. catalog. Compounds were dissolved in DMSO at a stock concentration of 1 μg/μL (˜1.5 mM). The library was screened at a 1:100 dilution in E3 solution for a final concentration of ˜15 μM. Negative controls were treated with an equal volume of DMSO. Groups of 3 larvae at 3 days post fertilization (dpf) were distributed into the wells of 96-well clear bottom black microplates (07-200-567; Fisher Scientific) in 150 μL E3 before the addition of small molecules. Stock solutions of compounds were added directly to zebrafish in the wells of a 96 well plate (Corning 3631), mixed, and allowed to incubate for 1 h in the dark at 28.5° C. prior to behavioral evaluation in the behavioral assay. Ordering information: 1 (5533696; ChemBridge); 3 (5538408; ChemBridge).
# Larvae in each of the wells were exposed to four 1 second flashes of light stimulus in the following order: 450-500 nm (WL1), 415-455 nm (WL2), 352-402 nm (WL3), white light (WL4), with a 5 second inter-stimulus interval. Digital video recording was performed for 5 seconds before the first light stimuli and continued throughout the stimulation sequence. Band pass filters (Semrock FF02-475/50, FF02-435/40, FF01-377/50) were used to restrict the excitation light to the indicated wavelengths. […] 290 frames of digital video were recorded per well at 10 FPS using an EMCCD camera (C9100; Hamamatsu) mounted on an inverted compound microscope (AxioObserver A1; Zeiss) with a NA 0.03 1.25× objective and a barrier with a 0.7 mm diameter opening to restrict light scattering to the sample. MetaMorph software (Molecular Devices) was used to control the execution of TTL signals and camera capture using the built-in stream acquisition with trigger function. Each video was saved for review. Light stimuli were generated with an ozone free 300-Watt xenon bulb housed in a Lambda LS illuminator (Sutter Instruments). A dichroic mirror (T510LPXRXT; Chroma) was used for appropriate excitation of samples and bright field acquisition. Schott longpass absorption glass (RG610; Chroma) was added in the transmitted light path to reduce unwanted excitation to the well and to provide sufficient light for video recording. All behavioral experiments were conducted at room temperature. […]
# To analyze digital video recordings, custom MetaMorph software scripts were used to automatically threshold the video to identify the area of larvae in each frame. Threshold images of the frames after each light activation event were overlaid to calculate a new combined threshold area. The motion index was calculated as the percentage change between the threshold area in the frame right before light activation and the new combined threshold area. This motion index correlates with the overall amount of motion in the well.
Compound,365 nm PSS [1] [% E],420 nm PSS [1] [% E],495 nm PSS [1] [% E],light-induced motion response (in vivo activity) [2]
"O=C(Nc1ccccc1/N=N/c1ccccc1)c1ccco1 [Compound 2, (E)-N-(2-(phenyldiazenyl)phenyl)furan-2-carboxamide]",13,56,79,reduced activity
"O=C(Nc1ccc(/N=N/c2ccccc2)c(NC(=O)c2cccs2)c1)c1cccs1 [Compound 3, (E)-N,N′-(4-(phenyldiazenyl)-1,3-phenylene)bis(thiophene-2-carboxamide)]",22,38,76,slightly lower photoresponse
"N#Cc1ccc(/N=N/c2ccc(NC(=O)c3ccco3)cc2NC(=O)c2ccco2)cc1 [Compound 4, (E)-N,N′-(4-((4-cyanophenyl)diazenyl)-1,3-phenylene)bis(furan-2-carboxamide)]",47,32,61,far less active
"N#Cc1ccc(/N=N/c2ccc(NC(=O)c3cccs3)cc2NC(=O)c2cccs2)cc1 [Compound 5, (E)-N,N′-(4-((4-cyanophenyl)diazenyl)-1,3-phenylene)bis(thiophene-2-carboxamide)]",41,30,61,far less active
"O=C(Nc1ccc(/N=N/c2ccc([N+](=O)[O-])cc2)c(NC(=O)c2ccco2)c1)c1ccco1 [Compound 6, (E)-N,N′-(4-((4-nitrophenyl)diazenyl)-1,3-phenylene)bis(furan-2-carboxamide)]",66,42,64,far less active
"O=C(Nc1ccc(/N=N/c2ccc([N+](=O)[O-])cc2)c(NC(=O)c2cccs2)c1)c1cccs1 [Compound 7, (E)-N,N′-(4-((4-nitrophenyl)diazenyl)-1,3-phenylene)bis(thiophene-2-carboxamide)]",69,46,70,far less active
